Values of other authors in patent US5480779A (priority 1988, dated 1996).

molecular target: peptidyl-prolyl cis-trans-isomerase (Sus scrofa, UniProt P62936)
Sequence (P62936 whole entry): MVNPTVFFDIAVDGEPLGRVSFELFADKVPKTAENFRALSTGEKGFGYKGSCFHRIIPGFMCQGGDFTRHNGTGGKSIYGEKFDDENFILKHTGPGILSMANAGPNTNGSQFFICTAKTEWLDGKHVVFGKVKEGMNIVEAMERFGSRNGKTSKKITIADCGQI

Molecule | inactivation / inhibition of the enzyme
O=C(O)c1cc[c]([Hg][Cl])cc1 [p-chloromercuribenzoate] | strongly inactivated
CCCCCCCCCCCCOS(=O)(=O)[O-].[Na+] [sodium dodecylsulfate] | strongly inactivated
chloroiosylamidophenylbutane | not inhibited
